ChEMBL document CHEMBL1201862, “PubChem BioAssay data set” (2004)
Activity calls are given as the source filed them. How the calls were made is not given here.

Legend:
[1] = biological target: T1, Short transient receptor potential channel 4 (Mus musculus, UniProt Q9QUQ5); test: calcium entry via TRPC4 opening agents – cell-based, HEK293 TRPC4/mu-opioid, Fluo-4 calcium, dose response (AID 434937); assay type: functional
T1 sequence (Q9QUQ5 whole entry): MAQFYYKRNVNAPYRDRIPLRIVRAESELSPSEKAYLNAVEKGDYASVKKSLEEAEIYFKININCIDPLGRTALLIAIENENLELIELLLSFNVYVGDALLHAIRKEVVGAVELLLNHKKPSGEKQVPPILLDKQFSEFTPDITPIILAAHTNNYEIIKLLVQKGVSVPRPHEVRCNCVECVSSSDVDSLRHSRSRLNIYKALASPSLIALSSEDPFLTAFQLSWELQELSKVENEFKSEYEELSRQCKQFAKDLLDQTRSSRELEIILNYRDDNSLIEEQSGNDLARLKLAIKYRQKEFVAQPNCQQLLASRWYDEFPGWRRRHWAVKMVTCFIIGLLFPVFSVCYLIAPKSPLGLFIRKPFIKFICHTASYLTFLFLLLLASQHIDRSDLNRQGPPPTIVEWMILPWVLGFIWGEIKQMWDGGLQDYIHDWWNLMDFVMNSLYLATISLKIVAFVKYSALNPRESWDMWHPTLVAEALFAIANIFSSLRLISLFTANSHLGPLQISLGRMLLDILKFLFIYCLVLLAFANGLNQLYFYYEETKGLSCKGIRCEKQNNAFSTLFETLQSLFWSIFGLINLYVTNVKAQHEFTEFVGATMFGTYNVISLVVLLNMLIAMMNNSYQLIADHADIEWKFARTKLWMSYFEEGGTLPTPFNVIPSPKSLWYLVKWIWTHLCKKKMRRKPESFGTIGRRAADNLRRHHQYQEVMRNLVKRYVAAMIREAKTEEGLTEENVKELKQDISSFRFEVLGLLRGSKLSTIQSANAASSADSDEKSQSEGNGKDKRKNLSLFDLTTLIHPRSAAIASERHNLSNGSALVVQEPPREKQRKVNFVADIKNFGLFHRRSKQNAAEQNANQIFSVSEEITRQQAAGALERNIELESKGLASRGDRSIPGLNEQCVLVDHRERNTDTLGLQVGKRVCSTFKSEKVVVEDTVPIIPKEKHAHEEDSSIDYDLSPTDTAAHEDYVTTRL

Protein Tat = biological target: T2, Protein Tat (Human immunodeficiency virus type 1 group M subtype B (isolate HXB2)(HIV-1), UniProt P04608); assay type: functional;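 further: tat binding to TAR RNA read out by fluorescence polarization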
T2 sequence (P04608 whole entry): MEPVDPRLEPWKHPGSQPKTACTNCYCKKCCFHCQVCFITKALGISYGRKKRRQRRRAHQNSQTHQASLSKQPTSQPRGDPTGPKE

CCN1/C(=C/c2ccc3cc(C)ccc3[n+]2CC)Sc2cc(C)c(C)cc21
EC50 [1]: 11.9 µM (active)

COc1cc(NCCCNC(C)C)c2nccc(C)c2c1
IC50 (Protein Tat): > 100 µM (active)
